Laboratory results from ChEMBL document CHEMBL5385845, “Novel coumarin aminophosphonates as potential multitargeting antibacterial agents against Staphylococcus aureus” (Eur J Med Chem, 2023).
≈ marks a conversion by molar mass, not a printed value.

Tests used:
Assay type in all cases: functional
Escherichia coli [1] = experiment: Antibacterial activity against Escherichia coli assessed as inhibition of bacterial growth
Staphylococcus aureus [2] = experiment: Antibacterial activity against Staphylococcus aureus ATCC 29213 assessed as inhibition of bacterial growth
Pseudomonas aeruginosa [3] = experiment: Antibacterial activity against Pseudomonas aeruginosa ATCC 27853 assessed as inhibition of bacterial growth
Pseudomonas aeruginosa [4] = experiment: Antibacterial activity against Pseudomonas aeruginosa assessed as inhibition of bacterial growth
Escherichia coli [5] = experiment: Antibacterial activity against Escherichia coli ATCC 25922 assessed as inhibition of bacterial growth
Acinetobacter baumannii = experiment: Antibacterial activity against Acinetobacter baumannii assessed as inhibition of bacterial growth
Enterococcus faecalis = experiment: Antibacterial activity against Enterococcus faecalis assessed as inhibition of bacterial growth
Staphylococcus aureus [6] = experiment: Antibacterial activity against Staphylococcus aureus assessed as inhibition of bacterial growth
Staphylococcus aureus [7] = experiment: Antibacterial activity against methicillin resistant Staphylococcus aureus N315 assessed as inhibition of bacterial growth
Klebsiella pneumoniae = experiment: Antibacterial activity against Klebsiella pneumoniae assessed as inhibition of bacterial growth
Staphylococcus aureus [8] = experiment: Antibacterial activity against Staphylococcus aureus ATCC 25923 assessed as inhibition of bacterial growth

Structure (SMILES) | MIC (Escherichia coli [1]) [µg/mL] | MIC (Staphylococcus aureus [2]) [µg/mL] | MIC (Pseudomonas aeruginosa [3]) [µg/mL] | MIC (Pseudomonas aeruginosa [4]) [µg/mL] | MIC (Escherichia coli [5]) [µg/mL] | MIC (Acinetobacter baumannii) [µg/mL] | MIC (Enterococcus faecalis) [µg/mL] | MIC (Staphylococcus aureus [6]) [µg/mL] | MIC (Staphylococcus aureus [7]) [µg/mL] | MIC (Klebsiella pneumoniae) [µg/mL] | MIC (Staphylococcus aureus [8]) [µg/mL]
CCOP(=O)(OCC)C(Nc1ccc2c(C)cc(=O)oc2c1)c1ccc(C(F)(F)F)cc1 (stereo unspecified) | 128 (≈ 273 µM) | 256 (≈ 545 µM) | 64 (≈ 136 µM) | 64 (≈ 136 µM) | 64 (≈ 136 µM) | 128 (≈ 273 µM) | 128 (≈ 273 µM) | 256 (≈ 545 µM) | 256 (≈ 545 µM) | 128 (≈ 273 µM) | 256 (≈ 545 µM)
CCOP(=O)(OCC)C(Nc1ccc2c(C)cc(=O)oc2c1)c1ccc(O)c(OC)c1 (stereo unspecified) | 128 (≈ 286 µM) | 128 (≈ 286 µM) | 64 (≈ 143 µM) | 256 (≈ 572 µM) | 64 (≈ 143 µM) | 128 (≈ 286 µM) | 16 (≈ 35.8 µM) | 64 (≈ 143 µM) | 128 (≈ 286 µM) | 256 (≈ 572 µM) | 64 (≈ 143 µM)
CCOP(=O)(OCC)C(Nc1ccc2c(C)cc(=O)oc2c1)c1ccc(C#N)cc1 (stereo unspecified) | 128 (≈ 300 µM) | 64 (≈ 150 µM) | 128 (≈ 300 µM) | 64 (≈ 150 µM) | 128 (≈ 300 µM) | 128 (≈ 300 µM) | 64 (≈ 150 µM) | 128 (≈ 300 µM) | 128 (≈ 300 µM) | 128 (≈ 300 µM) | 256 (≈ 600 µM)
CCCCc1nc(Cl)c(C(Nc2ccc3c(C)cc(=O)oc3c2)P(=O)(OCC)OCC)n1Cc1ccc(Cl)cc1Cl (stereo unspecified) | 64 (≈ 99.9 µM) | 128 (≈ 200 µM) | 256 (≈ 399 µM) | 64 (≈ 99.9 µM) | 128 (≈ 200 µM) | 128 (≈ 200 µM) | 128 (≈ 200 µM) | 64 (≈ 99.9 µM) | 128 (≈ 200 µM) | 128 (≈ 200 µM) | 32 (≈ 49.9 µM)
CCOP(=O)(OCC)C(Nc1ccc2c(C)cc(=O)oc2c1)c1cc(O)c2c(c1)C(=O)c1cccc(O)c1C2=O (stereo unspecified) | 8 (≈ 14.2 µM) | 8 (≈ 14.2 µM) | 8 (≈ 14.2 µM) | 8 (≈ 14.2 µM) | 4 (≈ 7.1 µM) | 16 (≈ 28.4 µM) | 32 (≈ 56.8 µM) | 8 (≈ 14.2 µM) | 4 (≈ 7.1 µM) | 32 (≈ 56.8 µM) | 4 (≈ 7.1 µM)
CCCCc1nc(Cl)c(C(Nc2ccc3c(C)cc(=O)oc3c2)P(=O)(OCC)OCC)[nH]1 (stereo unspecified) | 32 (≈ 66.4 µM) | 256 (≈ 531 µM) | 256 (≈ 531 µM) | 64 (≈ 133 µM) | 64 (≈ 133 µM) | 128 (≈ 266 µM) | 64 (≈ 133 µM) | 32 (≈ 66.4 µM) | 128 (≈ 266 µM) | 128 (≈ 266 µM) | 16 (≈ 33.2 µM)
CCOP(=O)(OCC)C(Nc1ccc2c(C)c(Cl)c(=O)oc2c1)c1cccc(O)c1 (stereo unspecified) | 128 (≈ 283 µM) | 32 (≈ 70.8 µM) | 128 (≈ 283 µM) | 64 (≈ 142 µM) | 16 (≈ 35.4 µM) | 32 (≈ 70.8 µM) | 64 (≈ 142 µM) | 16 (≈ 35.4 µM) | 32 (≈ 70.8 µM) | 128 (≈ 283 µM) | 32 (≈ 70.8 µM)
CCOP(=O)(OCC)C(Nc1cc2ccccc2oc1=O)c1cccc(O)c1 (stereo unspecified) | 64 (≈ 159 µM) | 32 (≈ 79.3 µM) | 4 (≈ 9.92 µM) | 32 (≈ 79.3 µM) | 32 (≈ 79.3 µM) | 16 (≈ 39.7 µM) | 16 (≈ 39.7 µM) | 8 (≈ 19.8 µM) | 32 (≈ 79.3 µM) | 128 (≈ 317 µM) | 8 (≈ 19.8 µM)
CCOP(=O)(OCC)C(Nc1ccc2c(C)cc(=O)oc2c1)c1ccc(O)c(Br)c1 (stereo unspecified) | 64 (≈ 129 µM) | 128 (≈ 258 µM) | 64 (≈ 129 µM) | 32 (≈ 64.5 µM) | 128 (≈ 258 µM) | 128 (≈ 258 µM) | 128 (≈ 258 µM) | 64 (≈ 129 µM) | 256 (≈ 516 µM) | 128 (≈ 258 µM) | 128 (≈ 258 µM)
CCOP(=O)(OCC)C(Nc1ccc2c(C)cc(=O)oc2c1)c1cccc(Cl)c1O (stereo unspecified) | 128 (≈ 283 µM) | 128 (≈ 283 µM) | 64 (≈ 142 µM) | 16 (≈ 35.4 µM) | 64 (≈ 142 µM) | 128 (≈ 283 µM) | 128 (≈ 283 µM) | 32 (≈ 70.8 µM) | 64 (≈ 142 µM) | 128 (≈ 283 µM) | 64 (≈ 142 µM)
CCOP(=O)(OCC)C(Nc1ccc2c(CCl)cc(=O)oc2c1)c1cccc(O)c1 (stereo unspecified) | 64 (≈ 142 µM) | 64 (≈ 142 µM) | 32 (≈ 70.8 µM) | 128 (≈ 283 µM) | 8 (≈ 17.7 µM) | 64 (≈ 142 µM) | 32 (≈ 70.8 µM) | 16 (≈ 35.4 µM) | 64 (≈ 142 µM) | 128 (≈ 283 µM) | 16 (≈ 35.4 µM)
